Reference: ChEMBL document CHEMBL1201862, “PubChem BioAssay data set” (2004)
Activity calls are given as the source filed them.

How the values were obtained:
[1] = luciferase reporter signal suppression in cells – H4 neuroglioma cells, luminescence, dose response (AID 1990); assay type: functional, cell-based
[2] = Luminescence Cell-Based Dose Response HTS to Identify Inhibitors of 5'UTR Stem-Loop Driven Prion Protein mRNA Translation in H4 Neuroglioblastoma Cells. [Related pubchem assays: 1827 (Project Summary), 1813 (Primary HTS)]; assay type: functional
[3] = alpha-synuclein stem-loop luciferase translation blockers – H4 neuroglioma cells, luminescence, confirmation (AID 1988); assay type: functional, cell-based
[4] = HEK-293T cell viability reduction – luminescence, B-cell screen hits, cytotoxicity control for BCR NF-kB inhibitor project, dose response (AID 489021); assay type: functional, cell-based;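 further: HEK-293T cells carrying an NF-kB luciferase reporter; cells exposed to compound for about 14 hours before viability readout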
[5] = A cytotoxicity screen of small molecule inhibitors of the PhoP region in Salmonella typhi identified in the primary screen. [Related pubchem assays: 1850, 1864, 1985 ]; assay type: functional
[6] = molecular target: T1, Calpain-2 catalytic subunit (Sus scrofa, UniProt P43367); assay: m-calpain protease blockers, concentration series – biochemical, fluorogenic peptide substrate, dose response (AID 1420); assay type: functional
T1 sequence (P43367 whole entry): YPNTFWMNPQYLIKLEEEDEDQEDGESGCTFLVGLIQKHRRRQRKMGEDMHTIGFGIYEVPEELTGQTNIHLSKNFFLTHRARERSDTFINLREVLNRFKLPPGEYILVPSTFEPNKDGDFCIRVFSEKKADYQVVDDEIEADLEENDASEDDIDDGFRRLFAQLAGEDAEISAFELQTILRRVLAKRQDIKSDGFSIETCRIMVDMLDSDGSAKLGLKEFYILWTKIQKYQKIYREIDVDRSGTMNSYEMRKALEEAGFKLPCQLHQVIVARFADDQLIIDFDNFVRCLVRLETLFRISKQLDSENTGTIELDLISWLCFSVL

[7] = molecular target: T2, Short transient receptor potential channel 4 (Mus musculus, UniProt Q9QUQ5); assay: block of DAMGO-driven TRPC4 calcium entry – cell-based, HEK293 TRPC4/mu-opioid, Fluo-4 calcium, dose response (AID 434942); assay type: functional;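 further: potency of inhibitors blocking the TRPC4 calcium response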
T2 sequence (Q9QUQ5 whole entry): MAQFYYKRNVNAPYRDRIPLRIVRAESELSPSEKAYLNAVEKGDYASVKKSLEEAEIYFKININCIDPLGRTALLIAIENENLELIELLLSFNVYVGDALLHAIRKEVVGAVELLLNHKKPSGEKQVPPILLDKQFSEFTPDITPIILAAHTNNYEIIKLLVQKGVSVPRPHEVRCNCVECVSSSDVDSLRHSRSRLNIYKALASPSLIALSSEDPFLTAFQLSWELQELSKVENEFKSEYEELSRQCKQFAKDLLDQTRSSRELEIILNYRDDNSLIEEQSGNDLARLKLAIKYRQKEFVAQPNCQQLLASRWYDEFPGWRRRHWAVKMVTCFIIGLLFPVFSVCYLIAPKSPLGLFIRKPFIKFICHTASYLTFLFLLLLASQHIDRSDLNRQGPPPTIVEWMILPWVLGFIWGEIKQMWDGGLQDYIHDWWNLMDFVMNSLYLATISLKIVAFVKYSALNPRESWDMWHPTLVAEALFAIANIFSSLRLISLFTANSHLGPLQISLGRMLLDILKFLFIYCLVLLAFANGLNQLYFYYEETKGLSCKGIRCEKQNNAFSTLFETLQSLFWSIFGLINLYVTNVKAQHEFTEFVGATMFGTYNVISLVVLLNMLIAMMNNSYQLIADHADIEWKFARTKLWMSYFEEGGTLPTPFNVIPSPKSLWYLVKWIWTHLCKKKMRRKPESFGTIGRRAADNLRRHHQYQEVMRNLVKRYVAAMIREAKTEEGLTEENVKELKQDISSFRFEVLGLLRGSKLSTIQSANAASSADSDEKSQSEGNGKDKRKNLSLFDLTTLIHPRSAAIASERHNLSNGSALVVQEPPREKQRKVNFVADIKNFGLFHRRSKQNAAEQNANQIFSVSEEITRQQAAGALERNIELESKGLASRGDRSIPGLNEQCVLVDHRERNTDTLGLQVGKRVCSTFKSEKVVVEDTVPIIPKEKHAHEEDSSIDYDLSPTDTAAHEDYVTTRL

BJ [8] = assay: BJ-TERT fibroblast viability loss – cell-based, RAS-independent, luminescence, dose response (AID 1933); assay type: functional; settings: Homo sapiens
BJ [9] = assay: cells; assay type: functional, cell-based; settings: Homo sapiens
BJ [10] = assay: BJ-TERT-LT-ST fibroblast viability loss – cell-based, RAS-independent, luminescence, dose response (AID 1935); assay type: functional; settings: Homo sapiens;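 further: BJ fibroblasts immortalized with TERT plus LT and ST oncogenes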
[11] = DRD fibroblast viability loss – cell-based, non-viral oncogenic, luminescence, dose response (AID 1934); assay type: functional; settings: Homo sapiens
[12] = Trypanosoma cruzi growth suppression in host cells – NIH3T3 host cells, beta-gal luminescence, confirmation (AID 2044); assay type: functional, cell-based;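 further: intracellular parasites grown in NIH/3T3 mouse fibroblasts as host cells; luminescent beta-galactosidase reporter signal from transgenic T. cruzi replicating inside host cells; inhibitors lower the luminescence signal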
[13] = NIH3T3 cell viability loss – ATP luminescence, mouse fibroblasts, counter-screen, dose response (AID 2010); assay type: functional, cell-based;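 further: cells exposed to compound for about 90 hours before reading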
Cytochrome P450 2C19 = Cytochrome P450 2C19 (Homo sapiens, UniProt P33261); assay: Cytochrome panel assay with activity outcomes. Panel member name: p450-cyp2c19 Compounds with AC50 equal or less than 10 uM are considered active; assay type: functional; settings: read-out: AC50
Cytochrome P450 3A4 = Cytochrome P450 3A4 (Homo sapiens, UniProt P08684);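 further: CYP3A4 tested as one member of a cytochrome P450 panel screen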
[14] = molecular target: T3, Rac GTPase-activating protein 1 (Homo sapiens, UniProt Q9H0H5); assay: blockers of MgcRacGAP-driven Rac1 GTP hydrolysis – biochemical, ADP Hunter fluorescence, primary and confirmatory, confirmation (AID 624330); assay type: functional
T3 sequence (Q9H0H5 whole entry): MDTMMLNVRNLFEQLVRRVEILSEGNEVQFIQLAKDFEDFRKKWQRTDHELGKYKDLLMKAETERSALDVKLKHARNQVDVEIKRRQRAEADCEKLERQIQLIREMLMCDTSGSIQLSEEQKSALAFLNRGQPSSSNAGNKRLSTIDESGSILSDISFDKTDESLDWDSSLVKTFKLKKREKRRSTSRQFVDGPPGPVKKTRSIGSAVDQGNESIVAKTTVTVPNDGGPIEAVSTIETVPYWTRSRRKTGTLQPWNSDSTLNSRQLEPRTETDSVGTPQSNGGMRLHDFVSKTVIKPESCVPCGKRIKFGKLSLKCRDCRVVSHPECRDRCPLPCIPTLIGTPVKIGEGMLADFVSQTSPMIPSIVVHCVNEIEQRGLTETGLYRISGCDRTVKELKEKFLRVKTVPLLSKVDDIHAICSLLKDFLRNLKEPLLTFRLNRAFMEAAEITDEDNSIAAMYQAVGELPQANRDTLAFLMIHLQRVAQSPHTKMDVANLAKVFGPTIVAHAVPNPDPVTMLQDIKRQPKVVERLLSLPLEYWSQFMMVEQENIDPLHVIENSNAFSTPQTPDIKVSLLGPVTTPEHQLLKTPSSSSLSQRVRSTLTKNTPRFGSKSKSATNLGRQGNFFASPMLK

[15] = viability loss in THP-1 monocytes – THP-1 cells, cytotoxicity control for Vif-APOBEC3G degradation inhibitor project, dose response (AID 1117359); assay type: functional; settings: THP-1
[16] = HEK-293T viability loss after treatment – luminescence, T-cell screen hits, cytotoxicity control for TCR NF-kB inhibitor project, dose response (AID 489026); assay type: functional, cell-based;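 further: cells exposed to compound about 14 hours before the viability readout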
[17] = microbe, parasite or virus in culture; assay type: functional; settings: Mycobacterium tuberculosis
[18] = molecular target: Peroxisome proliferator-activated receptor gamma/Nuclear receptor coactivator 2 (Homo sapiens, UniProt P37231); assay type: functional;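 further: agonist potency for raising coactivator recruitment to the receptor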
[19] = molecular target: Peroxisome proliferator-activated receptor gamma/Nuclear receptor coactivator 1 (Homo sapiens, UniProt P37231); assay type: functional;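 further: agonist potency as compounds enhance coactivator SRC-1 recruitment to PPARgamma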
[20] = molecular target: Peroxisome proliferator-activated receptor gamma/Nuclear receptor coactivator 3 (Homo sapiens, UniProt P37231); assay type: functional;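 further: agonist potency for raising coactivator recruitment to the receptor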
Sequence of Peroxisome proliferator-activated receptor gamma/Nuclear receptor coactivator 3 (P37231 whole entry): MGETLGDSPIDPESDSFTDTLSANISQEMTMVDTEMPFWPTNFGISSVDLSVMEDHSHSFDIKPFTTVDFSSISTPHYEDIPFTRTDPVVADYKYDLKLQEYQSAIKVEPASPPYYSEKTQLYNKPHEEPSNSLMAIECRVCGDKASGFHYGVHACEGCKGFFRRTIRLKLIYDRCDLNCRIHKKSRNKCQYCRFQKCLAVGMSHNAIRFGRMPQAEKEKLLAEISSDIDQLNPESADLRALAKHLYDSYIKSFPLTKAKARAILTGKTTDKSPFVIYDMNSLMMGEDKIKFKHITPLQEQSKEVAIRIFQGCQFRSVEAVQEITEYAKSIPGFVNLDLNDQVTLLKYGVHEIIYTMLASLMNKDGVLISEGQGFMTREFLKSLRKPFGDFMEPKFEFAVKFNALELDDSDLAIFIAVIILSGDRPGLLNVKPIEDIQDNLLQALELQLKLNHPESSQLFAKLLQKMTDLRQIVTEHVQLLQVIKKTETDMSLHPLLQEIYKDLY
Sequence of Peroxisome proliferator-activated receptor gamma/Nuclear receptor coactivator 3 (Q9Y6Q9 whole entry, further chain): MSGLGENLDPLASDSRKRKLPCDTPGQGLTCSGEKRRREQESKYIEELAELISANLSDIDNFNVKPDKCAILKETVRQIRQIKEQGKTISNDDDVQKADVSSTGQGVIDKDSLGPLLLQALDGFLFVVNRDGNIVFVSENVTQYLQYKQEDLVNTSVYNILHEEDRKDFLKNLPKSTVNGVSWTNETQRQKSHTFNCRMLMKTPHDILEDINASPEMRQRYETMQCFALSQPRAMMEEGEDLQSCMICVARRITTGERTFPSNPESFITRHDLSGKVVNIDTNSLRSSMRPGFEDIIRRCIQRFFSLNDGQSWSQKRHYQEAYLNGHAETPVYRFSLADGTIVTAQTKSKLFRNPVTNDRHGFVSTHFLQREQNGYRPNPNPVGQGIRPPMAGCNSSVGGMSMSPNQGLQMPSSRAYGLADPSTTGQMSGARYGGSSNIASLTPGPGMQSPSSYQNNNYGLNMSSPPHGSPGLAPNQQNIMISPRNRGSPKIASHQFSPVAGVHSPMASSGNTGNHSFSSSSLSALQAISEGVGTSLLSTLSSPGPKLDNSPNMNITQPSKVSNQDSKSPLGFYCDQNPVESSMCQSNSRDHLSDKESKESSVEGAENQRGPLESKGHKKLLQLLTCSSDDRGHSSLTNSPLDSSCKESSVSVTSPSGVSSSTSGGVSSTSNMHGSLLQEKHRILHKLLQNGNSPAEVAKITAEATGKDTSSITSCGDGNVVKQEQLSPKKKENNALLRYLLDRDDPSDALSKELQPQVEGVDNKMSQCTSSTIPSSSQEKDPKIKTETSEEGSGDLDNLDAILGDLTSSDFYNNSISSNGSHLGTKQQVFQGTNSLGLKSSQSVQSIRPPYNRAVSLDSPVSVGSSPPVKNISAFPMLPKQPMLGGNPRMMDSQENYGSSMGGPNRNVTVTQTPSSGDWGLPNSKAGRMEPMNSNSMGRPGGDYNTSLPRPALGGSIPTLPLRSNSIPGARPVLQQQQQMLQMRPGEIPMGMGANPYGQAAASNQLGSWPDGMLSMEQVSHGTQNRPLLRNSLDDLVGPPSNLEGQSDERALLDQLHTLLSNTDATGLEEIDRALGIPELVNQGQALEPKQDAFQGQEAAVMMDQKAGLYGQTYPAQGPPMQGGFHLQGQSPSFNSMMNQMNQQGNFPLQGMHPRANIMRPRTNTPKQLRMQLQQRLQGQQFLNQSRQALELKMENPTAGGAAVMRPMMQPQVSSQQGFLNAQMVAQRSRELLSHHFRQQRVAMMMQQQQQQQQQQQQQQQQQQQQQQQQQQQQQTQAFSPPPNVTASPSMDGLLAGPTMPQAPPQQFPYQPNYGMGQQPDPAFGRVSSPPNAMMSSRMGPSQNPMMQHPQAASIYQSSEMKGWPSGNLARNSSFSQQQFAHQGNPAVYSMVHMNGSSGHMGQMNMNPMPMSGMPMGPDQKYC

Sequence of Peroxisome proliferator-activated receptor gamma/Nuclear receptor coactivator 1 (P37231 whole entry): as the sequence (P37231 whole entry) above
Sequence of Peroxisome proliferator-activated receptor gamma/Nuclear receptor coactivator 1 (Q15788 whole entry, further chain): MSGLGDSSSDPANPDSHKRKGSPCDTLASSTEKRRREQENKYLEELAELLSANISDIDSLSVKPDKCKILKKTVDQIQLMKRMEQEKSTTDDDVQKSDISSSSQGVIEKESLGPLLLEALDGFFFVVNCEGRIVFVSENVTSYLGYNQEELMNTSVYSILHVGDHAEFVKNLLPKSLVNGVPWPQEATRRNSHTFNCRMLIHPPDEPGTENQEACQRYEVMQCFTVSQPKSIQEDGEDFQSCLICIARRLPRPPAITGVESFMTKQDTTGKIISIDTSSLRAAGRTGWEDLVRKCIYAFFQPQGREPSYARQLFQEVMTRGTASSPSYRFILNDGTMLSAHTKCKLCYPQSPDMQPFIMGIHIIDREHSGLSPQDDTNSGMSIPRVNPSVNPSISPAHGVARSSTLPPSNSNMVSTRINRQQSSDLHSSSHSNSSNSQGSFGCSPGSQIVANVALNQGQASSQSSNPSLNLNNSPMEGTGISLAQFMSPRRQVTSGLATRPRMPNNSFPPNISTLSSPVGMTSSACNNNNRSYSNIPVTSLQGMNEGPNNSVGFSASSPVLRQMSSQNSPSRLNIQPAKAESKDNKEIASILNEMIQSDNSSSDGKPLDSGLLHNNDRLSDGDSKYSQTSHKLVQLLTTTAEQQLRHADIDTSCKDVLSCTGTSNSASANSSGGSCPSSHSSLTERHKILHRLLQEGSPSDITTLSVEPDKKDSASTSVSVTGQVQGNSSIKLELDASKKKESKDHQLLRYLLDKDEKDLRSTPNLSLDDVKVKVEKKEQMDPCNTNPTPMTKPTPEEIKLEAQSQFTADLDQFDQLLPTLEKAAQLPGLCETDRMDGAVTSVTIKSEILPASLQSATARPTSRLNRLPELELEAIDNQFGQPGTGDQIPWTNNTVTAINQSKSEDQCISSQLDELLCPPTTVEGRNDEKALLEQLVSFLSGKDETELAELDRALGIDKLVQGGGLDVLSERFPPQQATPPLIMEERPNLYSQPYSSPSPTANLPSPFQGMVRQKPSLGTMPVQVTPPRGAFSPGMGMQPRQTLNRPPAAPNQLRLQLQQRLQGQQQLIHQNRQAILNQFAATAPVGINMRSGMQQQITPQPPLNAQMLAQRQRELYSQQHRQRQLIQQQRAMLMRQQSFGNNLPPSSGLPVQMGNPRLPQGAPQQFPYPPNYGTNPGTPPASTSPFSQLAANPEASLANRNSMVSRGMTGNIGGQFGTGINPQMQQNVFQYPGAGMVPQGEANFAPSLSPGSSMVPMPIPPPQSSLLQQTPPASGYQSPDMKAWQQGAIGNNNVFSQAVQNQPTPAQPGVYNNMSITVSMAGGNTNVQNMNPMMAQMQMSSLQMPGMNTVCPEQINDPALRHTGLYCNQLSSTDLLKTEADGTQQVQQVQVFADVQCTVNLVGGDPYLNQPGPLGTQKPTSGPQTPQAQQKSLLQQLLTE
Sequence of Cytochrome P450 3A4 (P08684 whole entry): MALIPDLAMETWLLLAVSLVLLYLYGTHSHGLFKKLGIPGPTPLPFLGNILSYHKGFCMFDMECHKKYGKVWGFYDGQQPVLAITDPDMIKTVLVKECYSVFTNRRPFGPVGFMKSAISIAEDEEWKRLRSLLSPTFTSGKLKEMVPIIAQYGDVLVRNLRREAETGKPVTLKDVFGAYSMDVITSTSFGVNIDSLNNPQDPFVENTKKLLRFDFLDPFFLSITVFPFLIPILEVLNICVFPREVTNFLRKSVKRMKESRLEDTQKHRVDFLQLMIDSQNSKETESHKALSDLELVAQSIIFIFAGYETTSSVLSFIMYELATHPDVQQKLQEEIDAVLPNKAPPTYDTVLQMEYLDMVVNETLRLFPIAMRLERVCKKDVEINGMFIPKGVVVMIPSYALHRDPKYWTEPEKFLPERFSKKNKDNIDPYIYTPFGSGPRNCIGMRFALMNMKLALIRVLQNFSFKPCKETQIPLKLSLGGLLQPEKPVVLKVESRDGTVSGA
Sequence of Cytochrome P450 2C19 (P33261 whole entry): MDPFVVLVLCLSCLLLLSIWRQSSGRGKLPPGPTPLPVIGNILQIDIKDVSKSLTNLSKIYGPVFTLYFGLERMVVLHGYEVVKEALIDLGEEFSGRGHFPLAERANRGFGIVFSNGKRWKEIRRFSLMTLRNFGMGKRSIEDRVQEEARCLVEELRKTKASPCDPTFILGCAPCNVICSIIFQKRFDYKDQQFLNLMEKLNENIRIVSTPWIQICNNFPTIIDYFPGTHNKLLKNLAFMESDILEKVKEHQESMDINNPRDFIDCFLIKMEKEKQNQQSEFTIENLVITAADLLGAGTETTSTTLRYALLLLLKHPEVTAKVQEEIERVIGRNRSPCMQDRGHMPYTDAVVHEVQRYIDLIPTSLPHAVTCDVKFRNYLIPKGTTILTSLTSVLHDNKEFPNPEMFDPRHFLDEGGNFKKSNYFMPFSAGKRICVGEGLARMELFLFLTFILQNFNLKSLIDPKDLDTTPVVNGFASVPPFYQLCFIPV

With `Cc1ccc(/C=C2\SC(=S)N(CCCC(=O)Nc3cc(C)on3)C2=O)cc1` as the molecule, how does the EC50 [1] read?
Its EC50 is 15.3 µM (active).

And the EC50 [2]?
The EC50 was 51.7 µM (active).

What about the EC50 [3] of the same molecule?
Its EC50 is 14.6 µM (active).

What about the IC50 [4] of the same molecule?
The IC50 was > 80 µM (inactive).

With `N=c1sc2c(n1Cc1ccccc1)CCCC2` as the molecule, how does the EC50 [5] read?
The EC50 was > 50 µM (active).

With `CCCc1nc(SCC(=O)c2ccccc2)c2c(=O)n(C)c(=O)n(C)c2n1` as the molecule, how does the IC50 [6] read?
The IC50 was 7.89 µM (active).

For `CNC(=O)CSc1nc2nn(-c3ccccc3)c(=O)c-2c2n1CCCCC2`, which IC50 [4] is on record?
The IC50 was > 80 µM (inactive).

For `S=C(Nc1ccccc1)Nc1cc(Cl)ccc1Oc1ccccc1`, which EC50 [7] is on record?
Its EC50 is 4.73 µM (active).

For `CC(CCc1ccccc1)NC(=O)COC(=O)c1ccc(NC(=O)CC#N)cc1` (stereo unspecified), which EC50 (BJ [8]) is on record?
The EC50 was > 150 µM (not active).

And the EC50 (BJ [9])?
Its EC50 is > 150 µM (not active).

What about the EC50 (BJ [10]) of the same molecule?
Its EC50 is > 150 µM (inconclusive).

What about the EC50 [11] of the same molecule?
Its EC50 is > 150 µM (not active).

With `Cc1nc2nc(COc3ccccc3)nn2c(C)c1Cl` as the molecule, how does the EC50 [5] read?
The EC50 was > 50 µM (active).

Which results are given for `Cn1/c(=N\C(=O)CCl)sc2ccccc21`?
EC50 [12]: 0.973 µM (active); EC50 [13]: < 6 µM (inconclusive); IC50 [4]: > 80 µM (inactive); AC50 (Cytochrome P450 2C19): 20 µM (inconclusive); AC50 (Cytochrome P450 3A4): 15.8 µM (inconclusive)

Which results are given for `COc1ccc2cc(C(=O)Nc3ccc(O)cc3)sc(=O)c2c1OC`?
IC50 [14]: 24.8 µM (active); CC50 [15]: 25 µM (active)

With `Cc1cc(C)c(NC(=O)COC(=O)Cc2ccsc2)c(C)c1` as the molecule, how does the IC50 [6] read?
The IC50 was > 50 µM (not active).

For `CCC(=O)N(Cc1cc2cc(OC)ccc2nc1O)c1ccc(C)cc1C`, which EC50 [5] is on record?
The EC50 was > 50 µM (active).

Which IC50 [6] does the source give for `CCOCCCNc1ccc(N2C(=O)C3CCCCC3C2=O)cc1[N+](=O)[O-]` (stereo unspecified) here?
Its IC50 is 9.18 µM (active).

With `C=CCSc1nnc2n(-c3ccccc3OC)c(=O)c3c4c(sc3n12)CCC4` as the molecule, how does the EC50 [7] read?
The EC50 was 4.73 µM (active).

For `COC(=O)c1sccc1N=C(S)NCc1ccc(Cl)cc1`, which EC50 [5] is on record?
The EC50 was > 50 µM (active).

Which EC50 [7] does the source give for `O=C(COc1ccc(F)cc1)c1c(O)cc(O)cc1O` here?
The EC50 was 3.35 µM (active).

Which results are given for `CC(=O)Nc1ccc(S(=O)(=O)N2c3ccc(F)cc3CCC2C)cc1` (stereo unspecified)?
EC50 (BJ [8]): 13.5 µM (active); EC50 (BJ [9]): 92.3 µM (active); EC50 (BJ [10]): 16 µM (active); EC50 [11]: 16 µM (active); IC50 [16]: > 80 µM (inactive)

For `N=c1ccn2c(n1)O[C@H]1[C@H](O)[C@@H](CO)O[C@H]12`, which IC50 [4] is on record?
Its IC50 is > 80 µM (inactive).

For `Cc1c(CN2CCC(CO)(Cc3cccc(C(F)(F)F)c3)CC2)c2ccccc2n1C`, which EC50 [12] is on record?
Its EC50 is 0.969 µM (active).

And the CC50 [17]?
Its CC50 is 18.1 µM (active).

What about the EC50 [13] of the same molecule?
Its EC50 is > 60 µM (not active).

And the CC50 [15]?
Its CC50 is 9.2 µM (active).

What does the source list for `CCCCC(CC)c1nnc(NC(=O)c2cccs2)s1` (stereo unspecified)?
EC50 [18]: > 79.4 µM (not active); EC50 [19]: > 79.4 µM (not active); EC50 [20]: > 79.4 µM (not active); IC50 [6]: 8.06 µM (not active); EC50 [7]: 5.31 µM (active)
